Assay results reported in patent US10562914B2, “Imidazoles as histone demethylase inhibitors” (Istituto Europeo di Oncologia S.r.l., priority 2016, dated 2020).
Structures can show the parent of a compound that is named as a salt.

Assays:
[1] = system: Human leukemia MV4-11 cells; assay: Cell growth, CellTiter-Fluor viability assay, MV4-11; assay type: cell-based; settings: 48 h incubation, read-out: IC50 against human leukemia MV4-11 cells
Description: (§1) CellTiter-Flor® (Promega) is as a nonlytic, single-reagent-addition fluorescence assay that measures the relative number of living cells in a culture population after experimental manipulation. The CellTiter-Fluor™ Cell Viability Assay measures the conserved and constitutive protease activity within live cells and therefore acts as a marker for cell viability.
(§2) Human leukemia MV4-11 cells, (obtained from the Deutsche Sammlung von Mikroorganismen und Zellkulturen, ACC 102) or NB4 cells, (obtained from the Deutsche Sammlung von Mikroorganismen und Zellkulturen) in exponential growth, were incubated for 48 h with different concentrations of the inhibitors. After 48 h a volume of CellTiter-Fluor® Reagent equal to one fifth of volume of cell culture medium was added. The content was mixed and incubates for at least 90 min at 37° C. degree to obtain a stable signal. The fluorescence was recorded using an excitation wavelength of 360 nm and an emission at 535 nm. The IC50 was calculated using GraphPad Software.

human leukemia NB4 cells = assay: Cell growth, CellTiter-Fluor viability assay, NB4; assay type: cell-based; settings: NB-4, 48 h incubation, read-out: IC50 against human leukemia NB4 cells
Description: as §1, §2

[2] = target: T1, human recombinant KDM1A/CoREST protein (Homo sapiens, UniProt O60341); assay: Assay of enzyme inhibition of KDM1A (LSD1), TR-FRET; assay type: biochemical; settings: 0.25 nM KDM1A/CoREST, 50 nM H3K4 monomethylated peptide, 20 min at RT
T1 construct: made in house; host or cells: E. coli
Experimental: 2.1 Assay of Enzyme Inhibition of KDM1A (LSD1)
The intensity of the light emission is proportional to the level of biotinylated reaction product. The complex of human recombinant KDM1A/CoREST protein was produced in E. coli as separate proteins and co-purified as previously described.
Demethylase reaction was started by the addition of 50 nM histone H3K4 monomethylated.
The resulting mixture was incubated in the dark for 1 h at RT. Then, TR-FRET signal was read by a fluorimeter (Infinite® F200, Tecan, Männedorf, Swirzerland) (Excitation 320 nm, Emission 665 nm and 620 nm, delay time 50 μs, window time 100 μs).
The inhibitor concentrations ranged from 0.025 to 500 μM (serial 1:3 dilutions). The IC50 was calculated using GraphPad Software.

Row | IC50 [1] [µM] | IC50 (human leukemia NB4 cells) [µM] | IC50 [2] [µM] | Structure (SMILES)
1 | < 10 | < 20 | < 0.1 | CCc1cnc(-c2cc3sccc3n2C)n1CCOc1cccc(OC2CCNCC2)c1 [Example 19, 5-[5-ethyl-1-[2-[3-(4-piperidyloxy)phenoxy]ethyl]imidazol-2-yl]-4-methyl-thieno[3,2-b]pyrrole]
2 | < 10 | < 20 | < 0.1 | CCc1cnc(-c2cc3sccc3n2C)n1CCOc1ccc(OC2CCNCC2)cc1 [Example 21, 5-[5-ethyl-1-[2-[4-(4-piperidyloxy)phenoxy]ethyl]imidazol-2-yl]-4-methyl-thieno[3,2-b]pyrrole]
3 | < 10 | < 20 | < 0.1 | CCc1cn(CCOc2ccc(OCC3CCNC3)cc2)c(-c2cc3sccc3n2C)n1 (stereo not drawn) [Example 22, 5-[4-ethyl-1-[2-[4-(pyrrolidin-3-ylmethoxy)phenoxy]ethyl]imidazol-2-yl]-4-methyl-thieno[3,2-b]pyrrole hydrochloride]
4 | < 10 | < 20 | < 0.1 | CCc1cn(CCOc2ccc(OCC3CCNCC3)cc2)c(-c2cc3sccc3n2C)n1 [Example 23, 5-[4-ethyl-1-[2-[4-(4-piperidylmethoxy)phenoxy]ethyl]imidazol-2-yl]-4-methyl-thieno[3,2-b]pyrrole hydrochloride]
5 | < 10 | < 20 | < 0.1 | CCc1cnc(-c2cc3sccc3n2C)n1CCOc1ccc(OCC2CCNCC2)cc1 [Example 24, 5-[5-ethyl-1-[2-[4-(4-piperidylmethoxy)phenoxy]ethyl]imidazol-2-yl]-4-methyl-thieno[3,2-b]pyrrole trifluoroacetate]
6 | < 10 | < 20 | < 0.1 | CCc1cnc(-c2cc3sccc3n2C)n1CCOc1ccc(OC2CCCNCC2)cc1 (stereo not drawn) [Example 26, 5-[1-[2-[4-(azepan-4-yloxy)phenoxy]ethyl]-5-ethyl-imidazol-2-yl]-4-methyl-thieno[3,2-b]pyrrole trifluoroacetate]
7 | < 10 | < 20 | < 0.1 | CCc1cnc(-c2cc3sccc3n2C)n1CCCc1ccc(OC2CCNCC2)cc1 [Example 28, 5-[5-ethyl-1-[3-[4-(4-piperidyloxy)phenyl]propyl]imidazol-2-yl]-4-methyl-thieno[3,2-b]pyrrole hydrochloride]
8 | < 10 | < 20 | < 0.1 | Cn1c(-c2ncc(C3CCC3)n2CCOc2ccc(OC3CCNCC3)cc2)cc2sccc21 [Example 30, 5-[5-cyclobutyl-1-[2-[4-(4-piperidyloxy)phenoxy]ethyl]imidazol-2-yl]-4-methyl-thieno[3,2-b]pyrrole hydrochloride]
9 | < 10 | < 20 | < 0.1 | CCc1c(-c2ccccc2)nc(-c2cc3sccc3n2C)n1CCOc1ccc(OC2CCNCC2)cc1 [Example 31, 5-[5-ethyl-4-phenyl-1-[2-[4-(4-piperidyloxy)phenoxy]ethyl]imidazol-2-yl]-4-methyl-thieno[3,2-b]pyrrole]
10 | < 10 | < 20 | < 0.1 | CCc1c(-c2ccccc2)nc(-c2cc3sccc3n2C)n1CCOc1cccc(OC2CCNCC2)c1 [Example 32, 5-[5-ethyl-4-phenyl-1-[2-[3-(4-piperidyloxy)phenoxy]ethyl]imidazol-2-yl]-4-methyl-thieno[3,2-b]pyrrole]
11 | < 10 | < 20 | < 0.1 | CCc1nc(-c2cc3sccc3n2C)n(CCOc2cccc(OC3CCNCC3)c2)c1-c1ccccc1 [Example 33, 5-[4-ethyl-5-phenyl-1-[2-[3-(4-piperidyloxy)phenoxy]ethyl]imidazol-2-yl]-4-methyl-thieno[3,2-b]pyrrole]
